Reference: patent US20250326771A1, “PIPERAZINE DERIVATIVES USEFUL IN HIV THERAPY” (VIIV HEALTHCARE COMPANY, priority 2022, published 2025)

Columns and labels:
[1] = system: Jurkat HIV-luciferase clones; experiment: Jurkat latency reversal assay; type: cell-based; settings: Homo sapiens, 48 h; Jurkat latency reversal assay potency; read-out: Jurkat pEC50 (converted)
Summary of the method: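 Compounds are titrated 3-fold over 14 points from 10 μM in duplicate at 0.5% DMSO. Clones C16, 115 and N6, grown with 500 nM EFV, are co-incubated for 48 h at 37° C. Virally driven luciferase is read by luminescence, and EC50 and maximal percent activation versus vehicle come from a four-parameter model.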

cIAP1-BIR3 = cIAP1-BIR3 (Homo sapiens (Human), UniProt Q13490); experiment: BIR binding assay (FRET competition), cIAP1 BIR3; settings: for cIAP1 BIR3 vs BIR2 separation window: fold separation (FS) for cIAP1
Summary of the method: (§1)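 His-tagged domains (50 nM cIAP1-BIR3, 325 nM cIAP2-BIR2, 325 nM cIAP1-BIR2, 100 nM XIAP-BIR3) compete with compounds for a 200 nM AlexaFluor647-labelled SMAC/DIABLO peptide in HEPES buffer, pH 7.4, for 60 min. Then 2 nM Eu-W1024 is added for 30 min. The 615/665 nm ratio is fit by four-parameter fit to give IC50.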

cIAP2-BIR3 = cIAP2-BIR3 (Homo sapiens (Human), UniProt Q13489); experiment: BIR binding assay (FRET competition), cIAP2 BIR3; settings: for cIAP2 BIR3 vs BIR2 separation window: fold separation (FS) for cIAP2
XIAP-BIR3 = XIAP-BIR3 (Homo sapiens (Human), UniProt P98170); experiment: BIR binding assay (FRET competition), XIAP BIR3; settings: for XIAP BIR3 vs BIR2 separation window: fold separation (FS) for XIAP
Summary of the method: as §1

XIAP-BIR2 = XIAP-BIR2 (Homo sapiens (Human), UniProt P98170); experiment: BIR binding assay (FRET competition), XIAP BIR2; settings: FRET competition binding; read-out: XIAP BIR2 (pIC50) (converted)
Procedure: The BIR domain binding assays are FRET based competition assays that utilize His-tagged versions of each of the BIR2 and BIR3 domains from cIAP1, cIAP2, and XIAP (each domain assayed separately) each at a custom optimal concentration and a probe, 200 nM SMAC/DIABLO peptide AVPIAQKSE labelled with AlexaFluor647 (part #crb 1110326h, Discovery Peptides). The assay is conducted in 50 mM HEPES, […], 1 mM CHAPS, 5% Glycerol, 1 mM DTT, in dI water with a final pH of 7.4 and final volume of 20 uL. Final protein domain concentrations are: 50 nM cIAP1-BIR3 (Part #APT-11-370 Reaction Biology), 100 nM XIAP-BIR3 (Part #APT-11-351 Reaction Biology), 200 nM XIAP-BIR2 (Part #APT-11-470 Reaction Biology), 325 nM cIAP2-BIR2 (Part #APT-11-489 Reaction Biology), 50 nM cIAP2-BIR3 (Part #APT-11-372 Reaction Biology), 325 nM cIAP1-BIR2 (Part #APT-11-487 Reaction Biology). Compounds were plated using a HP Tecan D300 printer in a final total volume of 202 nl and DMSO concentration normalized across the 15-point, 3-fold dilution series. Peptide and probe were prepared at 2× relative to the concentrations above in binding buffer, 10 uL added to the prepared compound plates, and incubated for 60 minutes. LANCE Eu-W1024 (part #AD0401 Perkin Elmer #, vendor) was prepared at 2× concentration in binding buffer for final concentration of 2 nM, 10 uL added to each well, and plates incubated for 30 minutes. Plates were read on an ENVISION multifunction plate reader with […] laser excitation to obtain the 615 nm/665 nm emission ratio as indicative of probe:protein proximity. Data was analyzed using GraphPad PRISM and curves fit using log(inhibitor) vs. response—Variable slope (four […] method to obtain IC50 and pIC50 values.

cIAP1-BIR2 = cIAP1-BIR2 (Homo sapiens (Human), UniProt Q13490); experiment: BIR binding assay (FRET competition), cIAP1 BIR2
Summary of the method: as §1

cIAP2-BIR2 = cIAP2-BIR2 (Homo sapiens (Human), UniProt Q13489); experiment: BIR binding assay (FRET competition), cIAP2 BIR2
Summary of the method: as §1

cIAP2-BIR3, sequence (Q13489 238-349): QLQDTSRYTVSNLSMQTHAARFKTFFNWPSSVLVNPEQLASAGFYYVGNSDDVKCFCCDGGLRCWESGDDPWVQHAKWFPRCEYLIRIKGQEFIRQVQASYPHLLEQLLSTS
cIAP1-BIR2, sequence (Q13490 173-257): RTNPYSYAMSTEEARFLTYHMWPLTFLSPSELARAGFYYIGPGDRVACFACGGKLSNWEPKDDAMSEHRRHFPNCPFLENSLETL
cIAP2-BIR2, sequence (Q13489 158-242): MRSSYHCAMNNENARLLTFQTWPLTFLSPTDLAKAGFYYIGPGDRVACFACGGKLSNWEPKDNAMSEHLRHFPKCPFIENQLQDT
XIAP-BIR3, sequence (P98170 241-356): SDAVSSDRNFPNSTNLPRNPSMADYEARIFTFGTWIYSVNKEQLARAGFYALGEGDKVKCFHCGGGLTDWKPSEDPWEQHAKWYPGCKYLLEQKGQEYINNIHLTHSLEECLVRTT
cIAP1-BIR3, sequence (Q13490 253-363): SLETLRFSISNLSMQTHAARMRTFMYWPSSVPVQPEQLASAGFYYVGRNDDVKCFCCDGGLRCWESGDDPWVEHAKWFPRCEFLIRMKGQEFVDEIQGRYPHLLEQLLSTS
XIAP-BIR2, sequence (P98170 124-240): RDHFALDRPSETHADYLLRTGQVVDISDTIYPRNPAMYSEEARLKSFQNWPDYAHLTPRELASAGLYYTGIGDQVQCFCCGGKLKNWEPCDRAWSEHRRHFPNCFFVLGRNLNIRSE

Compound | EC50 [1] [nM] | IC50 (cIAP1-BIR3) [nM] | IC50 (cIAP2-BIR3) [nM] | IC50 (XIAP-BIR3) [nM] | XIAP BIR3 vs BIR2 separation window (XIAP-BIR3) | IC50 (XIAP-BIR2) [nM] | IC50 (cIAP1-BIR2) [nM] | IC50 (cIAP2-BIR2) [nM] | cIAP1 BIR3 vs BIR2 separation window (cIAP1-BIR3) | cIAP2 BIR3 vs BIR2 separation window (cIAP2-BIR3)
C[C@@H]1CN(CC(=O)N2CC(C)(C)c3[nH]c(=O)c(Cc4ccc(F)cc4)cc32)[C@@H](CN2CCC(C(F)(F)COc3cccc(OCC(F)(F)C4CCN(C[C@H]5CN[C@H](C)CN5CC(=O)N5CC(C)(C)c6[nH]c(=O)c(Cc7ccc(F)cc7)cc65)CC4)c3)CC2)CN1 [Example 110, 1,1′-(2,2′-((3R,3′R,6R,6′R)-((((1,3-phenylenebis(oxy))bis(1,1-difluoroethane-2,1-diyl))bis(piperidine-4,1-diyl))bis(methylene))bis(3-methylpiperazine-6,1-diyl))bis(acetyl))bis(6-(4-fluorobenzyl)-3,3-dimethyl-1,2,3,4-tetrahydro-5H-pyrrolo[3,2-b]pyridin-5-one)] | 0.49 to 12.6 | 15.8 to 31.6 | 15.8 to 31.6 | 15.8 to 31.6 | ++++ (FS>10,000) | 10000 to 51300 |  |  |  | 
C[C@@H]1CN(CC(=O)N2CC(C)(C)c3[nH]c(=O)c(Cc4ccc(F)cc4)cc32)[C@@H](CN2CCO[C@H](COc3ccccc3Cc3ccccc3OC[C@@H]3CN(C[C@H]4CN[C@H](C)CN4CC(=O)N4CC(C)(C)c5[nH]c(=O)c(Cc6ccc(F)cc6)cc54)CCO3)C2)CN1 [Example 66, 1,1′-(2,2′-((3R,3′R,6R,6′R)-(((2S,2'S)-(((methylenebis(2,1-phenylene))bis(oxy))bis(methylene))bis(morpholine-2,4-diyl))bis(methylene))bis(3-methylpiperazine-6,1-diyl))bis(acetyl))bis(6-(4-fluorobenzyl)-3,3-dimethyl-1,2,3,4-tetrahydro-5H-pyrrolo[3,2-b]pyridin-5-one)] | 0.49 to 12.6 | 15.8 to 31.6 | 7.94 to 15.8 | 15.8 to 31.6 | ++++ (FS>10,000) | 10000 to 51300 |  |  |  | 
C[C@@H]1CN(CC(=O)N2CC(C)(C)c3[nH]c(=O)c(Cc4ccc(F)cc4)cc32)[C@@H](CN2CCO[C@H](COc3ccccc3-c3ccccc3OC[C@@H]3CN(C[C@H]4CN[C@H](C)CN4CC(=O)N4CC(C)(C)c5[nH]c(=O)c(Cc6ccc(F)cc6)cc54)CCO3)C2)CN1 [Example 67, 1,1′-(2,2′-((3R,3′R,6R,6′R)-(((2S,2'S)—(([1,1′-biphenyl]-2,2′-diylbis(oxy))bis(methylene))bis(morpholine-2,4-diyl))bis(methylene))bis(3-methylpiperazine-6,1-diyl))bis(acetyl))bis(6-(4-fluorobenzyl)-3,3-dimethyl-1,2,3,4-tetrahydro-5H-pyrrolo[3,2-b]pyridin-5-one)] | 0.49 to 12.6 | 7.94 to 15.8 | 7.94 to 15.8 | 7.94 to 15.8 |  |  | 1000 to 3160 | 3160 to 10000 |  | 
COC(=O)c1cc(F)ccc1Cc1cnc2c(c1)N(C(=O)CN1C[C@@H](C)NC[C@@H]1CN1CCO[C@H](COc3cccc(OC[C@@H]4CN(C[C@H]5CN[C@H](C)CN5CC(=O)N5CC(C)(C)c6ncc(Cc7ccc(F)cc7C(=O)OC)cc65)CCO4)c3)C1)CC2(C)C [Compound 152] | 63.1 to 316 | 7.94 to 15.8 | 7.94 to 15.8 | 31.6 to 501 |  |  | 3160 to 10000 | 3160 to 10000 | +++ (10,000>FS>1,000) | +++ (10,000>FS>1,000)
C[C@@H]1CN(CC(=O)N2CC(C)(C)c3[nH]c(=O)c(Cc4ccc(F)cc4)cc32)[C@@H](CN2CCO[C@H](COc3ccc(Cl)c(OC[C@@H]4CN(C[C@H]5CN[C@H](C)CN5CC(=O)N5CC(C)(C)c6[nH]c(=O)c(Cc7ccc(F)cc7)cc65)CCO4)c3)C2)CN1 [Example 89, 1,1′-(2,2′-((3R,3′R,6R,6′R)-(((2S,2'S)-(((4-chloro-1,3-phenylene)bis(oxy))bis(methylene))bis(morpholine-2,4-diyl))bis(methylene))bis(3-methylpiperazine-6,1-diyl))bis(acetyl))bis(6-(4-fluorobenzyl)-3,3-dimethyl-1,2,3,4-tetrahydro-5H-pyrrolo[3,2-b]pyridin-5-one)] | 0.49 to 12.6 | 15.8 to 31.6 | 7.94 to 15.8 | 15.8 to 31.6 |  |  | 3160 to 10000 | 1000 to 3160 | +++ (10,000>FS>1,000) | +++ (10,000>FS>1,000)
C[C@@H]1CN(CC(=O)N2CC(C)(C)c3[nH]c(=O)c(Cc4c(F)c(F)c(F)c(F)c4F)cc32)[C@@H](CN2CCO[C@H](C(=O)NCc3ccc(CNC(=O)[C@@H]4CN(C[C@H]5CN[C@H](C)CN5CC(=O)N5CC(C)(C)c6[nH]c(=O)c(Cc7c(F)c(F)c(F)c(F)c7F)cc65)CCO4)cc3)C2)CN1 [Compound 176, (2S,2′S)-N,N′-(1,4-phenylenebis(methylene)) bis(4-(((2R,5R)-1-(2-(3,3-dimethyl-5-oxo-6-((perfluorophenyl)methyl)-2,3,4,5-tetrahydro-1H-pyrrolo[3,2-b]pyridin-1-yl)-2-oxoethyl)-5-methylpiperazin-2-yl)methyl)morpholine-2-carboxamide)] | 0.49 to 12.6 | 31.6 to 501 | 15.8 to 31.6 | 31.6 to 501 |  |  | 3160 to 10000 | 3160 to 10000 | ++ (1,000>FS>100) | +++ (10,000>FS>1,000)
C[C@@H]1CN(CC(=O)N2CC(C)(C)c3[nH]c(=O)c(Cc4ccc(F)cc4)cc32)[C@@H](CN2CCN(CCCCCCCCCCN3CCN(C[C@H]4CN[C@H](C)CN4CC(=O)N4CC(C)(C)c5[nH]c(=O)c(Cc6ccc(F)cc6)cc54)[C@H](C)C3)C[C@H]2C)CN1 [Example 25, 1,1′-(2,2′-((3R,3′R,6R,6′R)-(((2R,2′R)-decane-1,10-diylbis(2-methylpiperazine-4,1-diyl))bis(methylene))bis(3-methylpiperazine-6,1-diyl))bis(acetyl))bis(6-(4-fluorobenzyl)-3,3-dimethyl-1,2,3,4-tetrahydro-5H-pyrrolo[3,2-b]pyridin-5-one)] | 12.6 to 63.1 | 7.94 to 15.8 | 1.38 to 7.94 | 7.94 to 15.8 |  |  | 22.4 to 1000 | 22.4 to 1000 | ++ (1,000>FS>100) | +++ (10,000>FS>1,000)
C[C@@H]1CN(CC(=O)N2CC(C)(C)c3[nH]c(=O)c(Cc4ccc(F)cc4)cc32)[C@@H](CN2CCN(C(=O)/C=C/c3ccc(/C=C/C(=O)N4CCN(C[C@H]5CN[C@H](C)CN5CC(=O)N5CC(C)(C)c6[nH]c(=O)c(Cc7ccc(F)cc7)cc65)[C@H](C)C4)cc3)C[C@H]2C)CN1 [Example 14, 1,1′-(2,2′-((3R,3′R,6R,6′R)-(((2R,2′R)-((2E,2′E)-3,3′-(1,4-phenylene)bis(acryloyl))bis(2-methylpiperazine-4,1-diyl))bis(methylene))bis(3-methylpiperazine-6,1-diyl))bis(acetyl))bis(6-(4-fluorobenzyl)-3,3-dimethyl-1,2,3,4-tetrahydro-5H-pyrrolo[3,2-b]pyridin-5-one)] | 63.1 to 316 | 15.8 to 31.6 | 15.8 to 31.6 | 15.8 to 31.6 |  |  | 22.4 to 1000 | 22.4 to 1000 | ++ (1,000>FS>100) | ++ (1,000>FS>100)
